Paper PMC9610647, “Acetylcholinesterase Inhibitory Activities of Essential Oils from Vietnamese Traditional Medicinal Plants” (Molecules, 2022)

What was measured:
[1] = tested on: AChE of bovine erythrocytes; conditions: cited from earlier work
electric eel AChE = target: T1, electric eel AChE (Electrophorus electricus, UniProt O42275); experiment: Acetylcholinesterase (AChE) inhibition assay, Ellman method; type: biochemical; conditions: for inhibition at 4 µg/mL: read-out: Acetylcholinesterase inhibitory activity at 4 µg/mL; for inhibition at 20 µg/mL: read-out: Acetylcholinesterase inhibitory activity at 20 µg/mL; for inhibition at 100 µg/mL: read-out: Acetylcholinesterase inhibitory activity at 100 µg/mL; for inhibition at 500 µg/mL: read-out: Acetylcholinesterase inhibitory activity at 500 µg/mL
T1 construct: purchased Sigma-Aldrich
T1 sequence (O42275 24-633): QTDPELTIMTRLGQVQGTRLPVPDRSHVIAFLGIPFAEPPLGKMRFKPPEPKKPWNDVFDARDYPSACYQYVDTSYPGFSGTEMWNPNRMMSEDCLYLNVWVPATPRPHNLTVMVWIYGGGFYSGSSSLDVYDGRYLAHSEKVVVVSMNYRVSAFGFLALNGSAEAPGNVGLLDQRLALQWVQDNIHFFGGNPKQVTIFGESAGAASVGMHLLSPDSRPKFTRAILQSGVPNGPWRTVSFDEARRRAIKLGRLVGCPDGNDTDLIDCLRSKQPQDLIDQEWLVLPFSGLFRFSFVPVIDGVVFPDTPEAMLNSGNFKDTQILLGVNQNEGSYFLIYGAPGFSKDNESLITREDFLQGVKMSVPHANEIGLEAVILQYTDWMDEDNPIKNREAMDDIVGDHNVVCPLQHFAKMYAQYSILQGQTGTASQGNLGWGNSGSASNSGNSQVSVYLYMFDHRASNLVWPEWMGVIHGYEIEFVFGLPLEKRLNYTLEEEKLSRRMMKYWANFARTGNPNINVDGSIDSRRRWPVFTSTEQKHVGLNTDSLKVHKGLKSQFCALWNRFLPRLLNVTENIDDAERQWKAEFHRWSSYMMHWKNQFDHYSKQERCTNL
Experimental: Acetylcholinesterase (AChE) inhibitory activity of essential oil was determined according to the method described by Ellman and our previous study. The stock solution was obtained by dissolving the essential oil in DMSO (Merck), which was then diluted with H2O (deionized distilled water) to obtain different experimental concentrations. Each solution mixture consisted of 140 μL of phosphate buffer solution (pH: 8), 20 μL of essential oil at concentrations of 500, 100, 20, and 4 μg/mL, and 20 μL of the enzyme AChE (0.25 IU/mL, Sigma-Aldrich, St. Louis, MO, USA). The reaction mixtures were transferred to the test wells of a 96-well microtiter plate and incubated at 25 °C for 15 min. Then, solutions of 10 μL dithiobisnitrobenzoic acid (DTNB, 2.5 mM, Sigma-Aldrich) and 10 μL acetylthiocholine iodide (ACTI, 2.5 mM, Sigma-Aldrich) were added to each of the test wells and incubation continued for 10 min at 25 °C. […] Each test was carried out in triplicate.

[2] = tested on: AChE from Electrophorus electricus (electric eel); conditions: cited from earlier work
AChE = conditions: cited from earlier work
[3] = tested on: AChE from human erythrocytes; conditions: cited from earlier work
[4] = IC50 (μM), IC50 ± standard deviation
[5] = IC50, IC50 ± standard deviation

For C=C1CCC2CC1C2(C)C (stereo not drawn) [β-Pinene], the IC50 [1] is listed as roughly 1500 µM, the IC50 (electric eel AChE; [4]) is listed as 525 ± 42.4 µM and the IC50 (electric eel AChE; [5]) is listed as 524 µM. It also gave an inhibition at 4 µg/mL (electric eel AChE) of 20.9%, an inhibition at 20 µg/mL (electric eel AChE) of 28.9% and an inhibition at 100 µg/mL (electric eel AChE) of 58.9%. For the same molecule, the inhibition at 500 µg/mL (electric eel AChE) was 86.5%.
In the case of C=C1CC[C@H]2O[C@]2(C)CC[C@@H]2[C@@H]1CC2(C)C [Caryophyllene Oxide], the AChE inhibition ([1]; 250 µg/mL) is given as 35 ± 4.7%, the IC50 (electric eel AChE; [4]) is given as 1450 ± 61 µM and the IC50 (electric eel AChE; [5]) is given as 1450 µM. The inhibition at 4 µg/mL (electric eel AChE) was -2.11%, the inhibition at 20 µg/mL (electric eel AChE) was 0.49% and the inhibition at 100 µg/mL (electric eel AChE) was 16.9%. The inhibition at 500 µg/mL (electric eel AChE) was 74% and the AChE inhibition ([2]; 200 µg/mL) was 41.46 ± 2.66%.
In the case of CC1=CCCC(C)=CCC(C)(C)C=CC1 [α-Humulene], the IC50 (electric eel AChE; [4]) is reported as 785 ± 66 µM, the IC50 (electric eel AChE; [5]) is reported as 785 µM and the inhibition at 4 µg/mL (electric eel AChE) is reported as 19.4%. For the same molecule, the inhibition at 20 µg/mL (electric eel AChE) was 25.1%, the inhibition at 100 µg/mL (electric eel AChE) was 44.3% and the inhibition at 500 µg/mL (electric eel AChE) was 72.8%.
Work on C=C(C)C1CC=C(C)C(O)C1 (stereo not drawn) [trans-Carveol] yielded an IC50 (electric eel AChE; [4]) of 676 µM, an IC50 (electric eel AChE; [5]) of 676 µM and an inhibition at 4 µg/mL (electric eel AChE) of 1.19%. The inhibition at 20 µg/mL (electric eel AChE) was 16.8%, the inhibition at 100 µg/mL (electric eel AChE) was 55.3% and the inhibition at 500 µg/mL (electric eel AChE) was 76.9%.
For C=C1CCC2(C(C)C)CC12 (stereo not drawn) [Sabinene], the IC50 (AChE) is given as 1300 ± 21 µM.
For CC1=CC[C@@H](C(C)(C)O)CC1 [α-terpineol], the IC50 (AChE) is given as 8400 ± 400 µM.
For CC1(C)C2CC=C(C=O)C1C2 (stereo not drawn) [Myrtenal], the IC50 (AChE) is given as 170 µM.
C=C1CCC=C(C)CCC2C1CC2(C)C (stereo not drawn) [(E)-β-Caryophyllene] showed an IC50 (electric eel AChE; [4]) of 436 ± 29.9 µM, an IC50 (electric eel AChE; [5]) of 436 µM and an inhibition at 4 µg/mL (electric eel AChE) of 6.09%. The inhibition at 20 µg/mL (electric eel AChE) was 26.3%, the inhibition at 100 µg/mL (electric eel AChE) was 52.9% and the inhibition at 500 µg/mL (electric eel AChE) was 79%. For the same molecule, the IC50 [3] was 147 ± 15 µM and the “inhibition of AChE” value ([2]; concentration 0.06 mM) was 32%.
In the case of CC1=CC=C(C(C)C)CC1 [α-terpinene], the IC50 (AChE) is given as 1000 µM.
In the case of CC12CCC(CC1)C(C)(C)O2 [1,8-Cineole, reference compound], the IC50 [1] is given as 390 ± 60 µM and the IC50 [2] is given as 6 µM.
In the case of CC1=CCC2CC1C2(C)C (stereo not drawn) [α-Pinene, reference compound], the IC50 [1] is given as 660 ± 40 µM.
Molecule C=C(C)C1CC=C(C)CC1 (stereo not drawn) [Limonene] has an IC50 (electric eel AChE; [4]) of 390 ± 30 µM, an IC50 (electric eel AChE; [5]) of 390 µM and an inhibition at 4 µg/mL (electric eel AChE) of 18.2%. For the same molecule, the inhibition at 20 µg/mL (electric eel AChE) was 27%, the inhibition at 100 µg/mL (electric eel AChE) was 67.7% and the inhibition at 500 µg/mL (electric eel AChE) was 90.8%.
